Results published in US20200200775A1, “OXIDIZED LIPIDS AS BIOMARKERS FOR NEUROPATHIC PAIN” (Fraunhofer-Gesellschaft zur Förderung der angewandten …, priority 2017, published 2020).

Tests used:
[1] = LC-MS/MS lipid profiling in mouse models of chemotherapy-induced peripheral neuropathic pain; details: for concentrations of 9,10-EpOME: various pain relevant tissues and plasma following paclitaxel (6 mg/kg i.p.) or oxaliplatin (3 mg/kg i.p.) treatment, measurable as early as 24 hours after injection; for concentrations of 9-HODE / concentrations of 13-HODE: various pain relevant tissues and plasma following paclitaxel or oxaliplatin treatment
Protocol: For all behavioral experiments, only 6-12 weeks old male C57BL/6N mice were used and purchased from commercial breeding companies (Charles River, Sulzfeld, Germany, Janvier, Le Geneset-Saint-Isle, FR). To compare mechanical thresholds, age and sex matched littermates were used as control.
Paclitaxel was dissolved in Cremophor EL/Ethanol 1:1 and diluted in saline. The dose for intraperitoneal injection was set to 6 mg/kg as described previously [4]. Oxaliplatin was dissolved in saline. The dose for intraperitoneal injection was set to 3 mg/kg as described previously [5].
For the measurement of epoxy lipids and HETEs stock solutions of the analytes 9,10-EpOME, 9-HODE, 13-HODE, 12-HETE and 15-HETE and internal standards 9,10-EpOME-d4, 9-HODE-d4, 13-HODE-d4, 12-HETE-d4 and 15-HETE-d4 are generated with concentrations of 2500 ng/ml in ethanol. Working standards were obtained by further dilution with a concentration range of 0.1-250 ng/ml for all analytes.
For prostanoids, stock solutions with 50,000 ng/ml of all analytes (6-keto-PGF1α) and internal standards (6-keto-PGF1α-d4) were prepared in methanol.
Lipids are extracted twice with 600 μl of ethyl acetate using liquid-liquid extraction. The combined organic phases were removed at a temperature of 45° C. under a gentle stream of nitrogen. The residues were reconstituted with 50 μl of methanol/water/butylated hydroxytoluene (BHT) (50:50:10^−3, v/v/v) (EpOMEs, HODEs and HETEs), or 50 μl of acetonitrile/water/formic acid (20:80:0.0025, v/v/v) (6-keto-PGF1α) and then centrifuged for 2 min at 10,000 g, and transferred to glass vials waiting for analysis.
The LC-MS/MS system consists of a QTrap 5500 (AB Sciex, Darmstadt, Germany) equipped with a Turbo-V source operating in negative electrospray ionization mode, an Agilent 1200 binary HPLC pump and degasser (Agilent, Waldbronn, Germany), and an HTC Pal autosampler (CTC analytics, Zwingen, Switzerland). High-purity nitrogen for the mass spectrometer was produced by a NGM 22-LC-MS nitrogen generator (cmc Instruments, Eschborn, Germany).
For the chromatographic separation of EpOMEs, HODEs and HETEs, a Gemini NX C18 column and precolumn were used (150×2 mm inner diameter, 5 μm particle size, and 110 Å pore size; Phenomenex, Aschaffenburg, Germany). For the chromatographic separation of prostanoids, a Synergi 4 u Hydro-RP column (150×2 mm inner diameter, 4 μm, Phenomenex, Aschaffenburg, Germany) and a precolumn of same material were used.
Mobile phase A consist of water: ammonia (100:0.05, v/v), and mobile phase B of acetonitrile ammonia (100:0.05, v/v). The gradient changed from 85% A to 10% within 12 min. These conditions were held for 1 min.
For the chromatographic separation of prostanoids, a Synergi 4 u Hydro-RP column (150×2 mm inner diameter, 4 μm, Phenomenex, Aschaffenburg, Germany) and a precolumn of same material were used.

[2] = Plasma concentrations of 9,10-EpOME and 9,10-DiHOME after paclitaxel treatment, with telmisartan administration; type: in vivo, mice; details: 8 d after paclitaxel-treatment (6 mg/kg); telmisartan 10 mg/kg, 2 h
Protocol: FIG. 4: Plasma-concentrations of 9,10-EpoME and its Metabolite 9,10-DiHOME 8d after paclitaxel-treatment (6 mg/kg) can be reduced by administration of telmisartan (10 mg/kg, 2h). Data are shown as mean±SEM from five mice per group; one-way ANOVA, *p<0.05.
Oxaliplatin was dissolved in saline.
These conditions were held for 1 min.
Ratios of analyte peak area and internal standard area.

[3] = pain relevant tissues, FIG. 2: 8 d after i.p. paclitaxel (6 mg/kg)

Compound | concentrations of 12-HETE [1, 3] | concentrations of 15-HETE [1, 3] | concentrations of 6-keto-Prostaglandin-F1α ([1]; pain relevant tissues, FIG. 2: 8 d after multiple i.p. paclitaxel (4×2 mg/kg, every other day)) | concentrations of 9,10-EpOME [1] | concentrations of 9-HODE [1] | concentrations of 13-HODE [1] | Plasma-concentrations of 9,10-DiHOME [2] | Plasma-concentrations of 9,10-EpOME [2]
CC(=O)O[C@H]1C(=O)[C@@]2(C)[C@H]([C@H](OC(=O)c3ccccc3)[C@]3(O)C[C@H](OC(=O)[C@H](O)[C@@H](NC(=O)c4ccccc4)c4ccccc4)C(C)=C1C3(C)C)[C@]1(OC(C)=O)CO[C@@H]1C[C@@H]2O [paclitaxel] | decreased | decreased | decreased | elevated | elevated | elevated | – | –
CCCc1nc2c(C)cc(-c3nc4ccccc4n3C)cc2n1Cc1ccc(-c2ccccc2C(=O)O)cc1 [telmisartan] | – | – | – | – | – | – | reduced | reduced
O=C1[O][Pt]2([NH][C@@H]3CCCC[C@H]3[NH]2)[O]C1=O [oxaliplatin] | – | – | – | elevated | elevated | elevated | – | –
